According to the supplement of paper PMC11061612:

What was measured:
Assay in all cases: combination Emax (second highest fraction inhibited in the dose matrix, 72 h); higher = more inhibition; extreme values may be limits of the assay
5637 (Bladder Carcinoma) = test system: 5637 (Bladder Carcinoma)
Summary of the method: (§1)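 Cell lines grown in DMEM/F12 or RPMI with 10% FBS were plated in 1536-well plates and held 24 hours at 37°C, 5% CO2 before 72 hours of exposure to two-drug dose matrices, with DMSO typically at 0.2%. CellTiter-Glo 2.0 luminescence gave viability, which was converted to inhibition. Vehicle wells were set to 0 and blank wells to 1. Combination Emax is the second-highest inhibition in the matrix, and Bliss excess is the observed combination effect minus the expected EA + EB − EA·EB, where EA and EB are the single-agent effects.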

[1] = test system: CESS (Acute Myeloid Leukemia)
Summary of the method: as §1

[2] = test system: CGTH-W-1 (Thyroid Gland Carcinoma)
Summary of the method: as §1

[3] = test system: EPLC-272H (Other Solid Carcinomas)
Summary of the method: as §1

[4] = test system: ESO26 (Esophageal Adenocarcinoma)
Summary of the method: as §1

EW-16 (Ewing's Sarcoma) = test system: EW-16 (Ewing's Sarcoma)
Summary of the method: as §1

[5] = test system: G-402 (Other Solid Carcinomas)
Summary of the method: as §1

[6] = test system: HCC1428 (Breast Carcinoma)
Summary of the method: as §1

HCC70 (Breast Carcinoma) = test system: HCC70 (Breast Carcinoma)
Summary of the method: as §1

[7] = test system: HT55 (Colorectal Carcinoma)
Summary of the method: as §1

[8] = test system: JVM-2 (B-Cell Non-Hodgkin's Lymphoma)
Summary of the method: as §1

[9] = test system: Jurkat (T-Lymphoblastic Leukemia)
Summary of the method: as §1

KP-N-YN (Neuroblastoma) = test system: KP-N-YN (Neuroblastoma)
Summary of the method: as §1

[10] = test system: MHH-ES-1 (Ewing's Sarcoma)
Summary of the method: as §1

NB13 (Neuroblastoma) = test system: NB13 (Neuroblastoma)
Summary of the method: as §1

[11] = test system: NCI-H2087 (Lung Adenocarcinoma)
Summary of the method: as §1

[12] = test system: NCI-H2228 (Lung Adenocarcinoma)
Summary of the method: as §1

RH-41 (Rhabdomyosarcoma) = test system: RH-41 (Rhabdomyosarcoma)
Summary of the method: as §1

[13] = test system: SK-HEP-1 (Hepatocellular Carcinoma)
Summary of the method: as §1

[14] = test system: SW620 (Colorectal Carcinoma)
Summary of the method: as §1

Structure (SMILES)	combination Emax (5637 (Bladder Carcinoma))	combination Emax [1]	combination Emax [2]	combination Emax [3]	combination Emax [4]	combination Emax (EW-16 (Ewing's Sarcoma))	combination Emax [5]	combination Emax [6]	combination Emax (HCC70 (Breast Carcinoma))	combination Emax [7]	combination Emax [8]	combination Emax [9]	combination Emax (KP-N-YN (Neuroblastoma))	combination Emax [10]	combination Emax (NB13 (Neuroblastoma))	combination Emax [11]	combination Emax [12]	combination Emax (RH-41 (Rhabdomyosarcoma))	combination Emax [13]	combination Emax [14]
CC(=O)c1c(C)c2cnc(Nc3ccc(N4CCNCC4)cn3)nc2n(C2CCCC2)c1=O [Palbociclib] + CC1(C)CCC(CN2CCN(c3ccc(C(=O)NS(=O)(=O)c4ccc(NCC5CCOCC5)c([N+](=O)[O-])c4)c(Oc4cnc5[nH]ccc5c4)c3)CC2)=C(c2ccc(Cl)cc2)C1 [Venetoclax] (first compound max 10 µM, 7x7, partner max 1 µM)	0.231	0.651	0.122	0.243	0.112	0.333	0.442	0.0427	0.0684	0.478	0.762	0.412	0.42	0.401	0.283	0.0514	0.238	0.329	0.621	0.385
CC(=O)c1c(C)c2cnc(Nc3ccc(N4CCNCC4)cn3)nc2n(C2CCCC2)c1=O [Palbociclib] + Cc1c2c(nn1C)CSCc1cc(n(C)n1)CSc1cc(c3ccccc3c1)OCCCc1c(C(=O)O)n(C)c3c-2c(Cl)ccc13 [AZD5991] (first compound max 10 µM, 7x7, partner max 1 µM)	0.197	0.669	0.176	0.822	0.63	0.415	0.839	0.952	0.867	0.506	0.704	0.883	0.387	0.622	0.389	0.218	0.247	0.911	0.848	0.466
CC(=O)c1c(C)c2cnc(Nc3ccc(N4CCNCC4)cn3)nc2n(C2CCCC2)c1=O [Palbociclib] + Cn1cnc2c(F)c(Nc3ccc(Br)cc3Cl)c(C(=O)NOCCO)cc21 [Selumetinib] (first compound max 10 µM, 7x7, partner max 10 µM)	0.345	0.658	0.14	0.7	0.299	0.311	0.462	0.165	0.269	0.755	0.774	0.386	0.318	0.352	0.333	0.501	0.335	0.269	0.372	0.72
COc1cccc(OCCCN)c1-c1cc(Nc2cnc(C#N)cn2)n[nH]1 [Prexasertib] + C=CCn1c(=O)c2cnc(Nc3ccc(N4CCN(C)CC4)cc3)nc2n1-c1cccc(C(C)(C)O)n1 [AZD1775] (first compound max 1 µM, partner max 1 µM)	0.924	0.966	0.765	0.914	0.649	0.75	0.731	0.688	0.955	0.67	0.942	1	0.994	0.861	0.935	0.804	0.719	1	0.65	0.853
COc1cccc(OCCCN)c1-c1cc(Nc2cnc(C#N)cn2)n[nH]1 [Prexasertib] + CCc1c2c(nc3ccc(O)cc13)-c1cc3c(c(=O)n1C2)COC(=O)[C@]3(O)CC [SN-38] (first compound max 1 µM, 7x7, partner max 0.3 µM)	1	0.983	0.832	0.922	0.76	0.984	0.868	0.797	0.944	0.863	0.985	1	0.985	1	0.962	0.918	0.821	1	0.761	0.975
COc1cccc(OCCCN)c1-c1cc(Nc2cnc(C#N)cn2)n[nH]1 [Prexasertib] + CN(C)CCCOc1ccc(-c2ccc3ncc4c(c3c2)n(C2CCOCC2)c(=O)n4C)cn1 [AZD0156] (first compound max 1 µM, 7x7, partner max 1 µM)	0.849	0.975	0.777	0.924	0.571	0.516	0.562	0.408	0.922	0.614	0.949	0.992	0.999	0.722	0.935	0.761	0.664	0.944	0.379	0.696
COc1cccc(OCCCN)c1-c1cc(Nc2cnc(C#N)cn2)n[nH]1 [Prexasertib] + C[C@@H]1COCCN1C2=NC(=NC(=C2)C3(CC3)[S@](=N)(=O)C)C4=C5C=CNC5=NC=C4 [AZD6738] (first compound max 1 µM, 7x7, partner max 10 µM)	0.845	0.978	0.711	0.942	0.541	0.736	0.605	0.378	0.908	0.65	0.949	0.992	1	0.693	0.943	0.797	0.643	0.97	0.462	0.744
COc1cccc(OCCCN)c1-c1cc(Nc2cnc(C#N)cn2)n[nH]1 [Prexasertib] + Cc1cc2ncnn2cc1Nc1ncc2c(n1)n(C1CCOCC1)c(=O)n2C [AZD7648] (first compound max 1 µM, 7x7, partner max 10 µM)	0.845	0.971	0.725	0.918	0.504	0.558	0.58	0.345	0.922	0.65	0.956	1	0.992	0.742	0.919	0.801	0.682	0.964	0.296	0.698
COc1cccc(OCCCN)c1-c1cc(Nc2cnc(C#N)cn2)n[nH]1 [Prexasertib] + O=C(c1cc(Cc2n[nH]c(=O)c3ccccc23)ccc1F)N1CCN(C(=O)C2CC2)CC1 [Olaparib] (first compound max 1 µM, 7x7, partner max 10 µM)	0.852	0.972	0.714	0.894	0.56	0.793	0.524	0.622	0.939	0.65	0.946	0.994	0.845	0.954	0.881	0.784	0.726	0.95	0.338	0.711
CCc1c2c(nc3ccc(O)cc13)-c1cc3c(c(=O)n1C2)COC(=O)[C@]3(O)CC [SN-38] + CN(C)CCCOc1ccc(-c2ccc3ncc4c(c3c2)n(C2CCOCC2)c(=O)n4C)cn1 [AZD0156] (first compound max 0.3 µM, 7x7, partner max 1 µM)	0.802	0.984	0.771	0.755	0.655	0.978	0.745	0.123	0.2	0.449	0.949	0.999	0.806	1	0.886	0.921	0.716	0.719	0.63	0.883
Cn1cnc2c(F)c(Nc3ccc(Br)cc3Cl)c(C(=O)NOCCO)cc21 [Selumetinib] + C=CCn1c(=O)c2cnc(Nc3ccc(N4CCN(C)CC4)cc3)nc2n1-c1cccc(C(C)(C)O)n1 [AZD1775] (first compound max 10 µM, partner max 1 µM)	0.85	0.944	0.0375	0.857	0.678	0.402	0.483	0.211	0.562	0.792	0.906	0.875	0.936	0.726	0.794	0.559	0.453	0.974	0.315	0.731
Cn1cnc2c(F)c(Nc3ccc(Br)cc3Cl)c(C(=O)NOCCO)cc21 [Selumetinib] + CC(C)n1c(=O)n(C)c2cnc3cc(F)c(-c4ccc(OCCCN5CCCCC5)nc4)cc3c21 [AZD1390] (first compound max 10 µM, 7x7, partner max 0.3 µM)	0.236	0.243	0.044	0.651	0.115	0.134	0.222	0.169	0.268	0.669	0.352	0.124	0.398	0.126	0.0733	0.449	0.203	0.131	0.193	0.615
Cn1cnc2c(F)c(Nc3ccc(Br)cc3Cl)c(C(=O)NOCCO)cc21 [Selumetinib] + CCN(CCO)CCCOc1ccc2c(Nc3cc(CC(=O)Nc4cccc(F)c4)[nH]n3)ncnc2c1 [AZD2811] (first compound max 10 µM, 7x7, partner max 1 µM)	0.81	0.423	0.125	0.634	0.212	0.551	0.578	0.297	0.603	0.741	0.633	0.203	0.581	0.609	0.367	0.445	0.296	0.309	0.362	0.863
